Source: US20050054629A1, “Compounds and methods of treating cell proliferative diseases” (priority 2002, published 2005)

Experiments:
MDA231 = assay: Cytoskeleton analysis, actin staining (FITC-phalloidin); format: cell-based, human
Protocol: (§1) Since major rearrangements of cytoskeleton are observed in tumor cells and since the small GTPases are known to regulate these events, analysis of actin cytoskeleton was performed. Subconfluent cells seeded onto coverslips were treated with different concentration of compound (1, 10, 17.5, 25 and 50 μM) or vehicle for 24 h, before being fixed in 4% formaldehyde for 15 min., permeabilized in 0.2% Triton X100 for 5 minutes and incubated in PowerBlock (Biogenex) for 10 min. Actin filaments were stained with 0.5 μg/ml fluorescein isothiocyanate (FITC)-labelled phalloidin for 1 hour. Analysis was performed using an inverted fluorescent microscope.

MRC-5 = assay: Cytotoxicity assay (MTT), 6 days; format: cell-based; details: Homo sapiens, MRC5, 144 h, 6 days of treatment, read-out: Toxicity 6d (IC 50, μM) MRC-5
In short: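 Cells seeded 24 h before treatment with 0, 1, 10, 17.5, 25 and 50 µM compound (1% DMSO), in triplicate. After 6 days, 0.5 mg/ml MTT for 3 h at 37 °C, formazan dissolved in DMSO, absorbance read at 550 nm. Surviving fraction and IC50 calculated.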

MDA-MB-231 cells = assay: Matrigel invasion assay (Boyden chamber); format: cell-based, human; details: for Invasion: MDA-MB-231, Boyden chamber, matrigel
In short: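 MDA-MB-231 cells were pretreated overnight with compound (1, 10, 17.5, 25, 50 μM). 10^5 cells in serum-free 0.1% BSA medium with compound were placed on 8 μm membranes coated with Matrigel (125 μg/cm^2), with 10% FBS plus compound below. After 6 h at 37 °C, cells on the filter underside were Diff-Quick stained and counted.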

MMP-2 = assay: Gelatin zymography; format: cell-based, human; details: MDA-MB-231 supernatant
Protocol: (§2) The activity of the metalloproteases MMP-2 and MMP-9 was assayed using gelatinolytic zymography according to Lambert (Surgery 1997). Briefly, MDA-MB-231 cells were incubated overnight in serum-free medium supplemented with ITS liquid supplement (Sigma) with different concentrations of compound (1, 10, 17.5, 25 and 50 μM). Supernatant was collected and concentrated with Ultrafree 30 kDA (Millipore). Equal amount of proteins, as determined by Bradford measurement, were loaded onto a 10% w/v polyacrylamide gel containing 1% gelatin and 0.1% SDS (Novex). After electrophoresis, gels were washed in Novex Zymogram Renaturing buffer for 30 min at room temperature and incubated overnight at 37° C. in Novex Zymogram developing buffer. Gels were stained in Coomassie Brilliant Blue G-250, and the gelatinolytic activity was visualized as a clear band against the blue background of the stained gelatin.

MMP-9 = assay: Gelatin zymography; format: cell-based, human; details: MDA-MB-231 supernatant
Protocol: as §2

Ras = assay: Ras-dependant signaling pathway analysis (reporter system); format: cell-based; set-up: key: −: no effect of the compound was observed; +: an effect of the compound was observed
In short: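 Ras and Rac signalling were measured with reporter systems. For colony formation, NIH3T3 cells were transfected with RasV12 or RacV12 plus neomycin plasmids, then grown 2-3 weeks in 400 μg/ml geneticin with compound at 1, 10, 17.5, 25 or 50 μM. Fuchsin-stained colonies of ≥50 cells were counted.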

HCT116 cells = assay: Anchorage-independent growth assay (soft agar / Matrigel); format: cell-based, human; details: for effect on anchorage-independent growth: HCT116; for IC50: Homo sapiens, HCT-116, 168 h, HCT116, 3-dimensional growth, 1 week
Protocol: In order to evaluate the effect of the compounds on the capacity of tumor cells to grow without anchorage, HCT116 cells were seeded either in agar or in Matrigel (BD, France). For 3D growth experiment in soft agar in 24-well plates, 5.10^3 HCT116 cells were resuspended in 250 μl of complete medium containing 0.3% soft-agar (Difco) and different concentrations of compound (0.1, 1, 10, 17.5, 25 and 50 μM). Cells were then poured on a solidified layer of medium containing 0.5% of soft-agar plus the compound at the same concentration than in the upper layer. Cells were incubated at 37° C. for 1 week before they were analysed using a phase contrast microscope (Nikon). For 3D growth experiment in Matrigel, 10^4 HCT116 cells were resuspended in 300 μl of complete medium containing 5 mg/ml Matrigel (BD, France) and different concentrations of compound (0.1, 1, 10, 17.5, 25 and 50 μM), and poured in 24-well plates. After solidification at 37° C. for 15 min., complete medium containing the compound was added to each well. Cells were incubated for 1 week before they were collected using Matrisperse (BD, France) according to the manufacturer's instructions. After recovery, alive cells were counted with trypan blue exclusion.

HCT116 = assay: Cytoskeleton analysis, actin staining (FITC-phalloidin); format: cell-based, human; details: HCT116 tumor cells
Protocol: as §1

H460 = assay: as above; format: cell-based, human; details: H460 tumor cells
Protocol: as §1

| SMILES | MDA-MB-231 spreading (MDA231) | Cell architecture modification actin staining MDA231 (MDA231; 24 h treatment) | IC50 (MRC-5) [µM] | concentration giving significant inhibition of invasive properties of MDA-MB-231 cells (MDA-MB-231 cells) [µM] | Invasion (MDA-MB-231 cells) | concentration inhibiting MMP-2 in a dose-dependant manner (zymogram gel) (MMP-2) [µM] | concentration inhibiting MMP-9 in a dose-dependant manner (zymogram gel) (MMP-9) [µM] | Small GTPases activities Ras (Ras) | effect on anchorage-independent growth (HCT116 cells) | IC50 (HCT116 cells) [µM] | concentration at which dose-dependant increase in spreading and disruption of cell-to-cell junctions was observed (HCT116) [µM] | concentration at which dose-dependant increase in spreading and disruption of cell-to-cell junctions was observed (H460) [µM] | concentration giving an increase in invasive properties of MDA-MB-231 cells (MDA-MB-231 cells) [µM] |
| --- | --- | --- | --- | --- | --- | --- | --- | --- | --- | --- | --- | --- | --- |
| CCCc1c(OCCCCCOc2coc(CO)cc2=O)ccc(Cl)c1Cl [EH22900, 5-[5-(3,4-Dichloro-2-propylphenyloxy)pentyloxy]-2-(hydroxymethyl)-4H-pyran-4-one] | increased | cell spreading | 25 | 17.5 | Decrease | 5 | 5 | − | strongest effect | < 1 |  |  |  |
| C/C=C/c1oc(CO)cc(=O)c1OCCCCCOc1ccc(Cl)c(Cl)c1CCC [EH31101, (E)-3-[5-(3,4-Dichloro-2-propylphenyloxy)pentyloxy]-6-(hydroxymethyl)-2-(propen-1-yl)-4H-pyran-4-one] |  |  |  |  | Increase | 0.1 | 0.1 | − | significant, although less severe, effect | < 1 | 10 | 25 | 10 |
